For six molecules, MIC and LD50 results are on record in patent publication US4285939A, “Cephalosporin derivatives, and antibacterial drugs containing the derivatives” (Eisai Co., Ltd., priority 1979, dated 1981).

Usually MIC stands for the lowest concentration that inhibits growth of the organism. What is called LD50 is the dose at which mortality reaches 50%. The low end stands for a more toxic substance, the high end for a less toxic substance.

The test system of data set [1] is Escherichia coli NIHJ. Nature of the data set: Minimal inhibitory concentration, standard agar dilution method (Escherichia coli). It is filed as cell-based. As to the method: (§1) Minimal inhibitory concentration (MIC) was determined by the standard agar dilution method of the Japan Society of Chemotherapy.
(§2) The compounds described in Examples 1, 2 and 5 were dissolved in sterilized water; the compound described in Example 4 was dissolved in acetone-water (1:1); and the control compounds, cephaloglycin and cephalexin monohydrate, were dissolved in a 3% sodium hydrogen carbonate solution.
(§3) Serial two-fold dilutions were made from the above solutions.
(§4) One-ml aliquots of each dilution were mixed with 9 ml of Heart influsion agar in petri-dishes to make agar plates containing the compound at serially diluted concentrations. After agar hardened, plates were put in an incubator at 37° C. for 1.5-2 hours with the lids slightly open to evaporate acetone off the plates.
(§5) Test organisms were grown for 18 hours at 37° C. in Trypticase Soy broth and diluted in saline to approximately 10^6 colony forming units per ml. A loopful of each cell suspension was applied on the agar plate mentioned above and the plates were incubated for 18 hours at 37° C. before MIC was determined.
(§6) MIC values of the compounds described in Examples 1, 2 and 5 were determined as their sodium salts and the compound described in Example 4 was determined as a free carboxylic acid.

The subject of data set [2] is Serratia marcescens ES-75. As to the kind of experiment: Minimal inhibitory concentration, standard agar dilution method (Serratia marcescens). Format: cell-based. Here is the method: as §1, §2, §3, §4, §5, §6
Background: In agar dilution, organisms are placed on agar that contains the substance at set levels.

Data set [3] relates to Klebsiella pneumoniae EK-6. Nature of the data set: Minimal inhibitory concentration, standard agar dilution method (Klebsiella pneumoniae). It is filed as cell-based. As to the method:
as §1, §2, §3, §4, §5, §6

The test system of data set [4] is Proteus morganii EP-14. As to the kind of experiment: Minimal inhibitory concentration, standard agar dilution method (Proteus morganii). Format: cell-based. As to conditions: Morganella morganii. As to the method:
as §1, §2, §3, §4, §5, §6

Data set [5] concerns Pseudomonas aeruginosa EP-172. Nature of the data set: Minimal inhibitory concentration, standard agar dilution method (Pseudomonas aeruginosa). Format: cell-based. As to the method:
as §1, §2, §3, §4, §5, §6

The test system of data set [6] is Staphylococcus aureus 209P. As to the kind of experiment: Minimal inhibitory concentration, standard agar dilution method (Staphylococcus aureus). It is filed as cell-based. As to the method:
as §1, §2, §3, §4, §5, §6

The nature of data set [7]: acute toxicity test (mouse, oral). The note with it: in vivo. The source says: Moreover, it has been confirmed that the compounds of this invention show low toxicity in the toxicity test. For example, the acute toxicity values [LD50 (mouse, oral)] for the following compounds were over 5 g/kg: […]
[8] abbreviates: Escherichia coli NIHJ, agar dilution, 18 hours at 37° C., Examples 1, 2, 5 as sodium salts, Example 4 as free acid, read-out: MIC.
The mark [9] stands for this setting: ES75, Serratia marcescens ES-75, agar dilution, 18 hours at 37° C., Examples 1, 2, 5 as sodium salts, Example 4 as free acid, read-out: MIC.
The mark [10] stands for this setting: EK6, Klebsiella pneumoniae EK-6, agar dilution, 18 hours at 37° C., Examples 1, 2, 5 as sodium salts, Example 4 as free acid, read-out: MIC.
The mark [11] stands for this setting: EP14, Proteus morganii EP-14, agar dilution, 18 hours at 37° C., Examples 1, 2, 5 as sodium salts, Example 4 as free acid, read-out: MIC.
Setting [12] is: EP172, Pseudomonas aeruginosa EP-172, agar dilution, 18 hours at 37° C., Examples 1, 2, 5 as sodium salts, Example 4 as free acid, read-out: MIC.
The mark [13] stands for this setting: Staphylococcus aureus 209P, agar dilution, 18 hours at 37° C., Examples 1, 2, 5 as sodium salts, Example 4 as free acid, read-out: MIC.

Read-outs that look alike come from different tables or passages of the source. A value given as a limit tells only on which side of the number the result lay.

Regarding `CC(=O)OCC1=C(C(=O)O)N2C(=O)[C@@H](NC(=O)[C@H](NC(=O)c3coc4c(O)c(O)ccc4c3=O)c3ccccc3)[C@H]2SC1` [Example 5, 7β-[D-2-(7,8-Dihydroxychromone-3-carboxamido)-2-phenylacetamido]-3-acetoxymethyl-3-cephem-4-carboxylic acid], the MIC was found to be 3.13 µg/mL in data set [1] (setting [8]); 1.56 µg/mL in data set [2] (setting [9]); 0.2 µg/mL in data set [3] (setting [10]); 12.5 µg/mL in data set [4] (setting [11]); 1.56 µg/mL in data set [5] (setting [12]); 1.56 µg/mL in data set [6] (setting [13]).

Consider `CC(=O)OCC1=C(C(=O)O)N2C(=O)[C@@H](NC(=O)[C@H](NC(=O)c3coc4c(OC(C)=O)c(OC(C)=O)ccc4c3=O)c3ccccc3)[C@H]2SC1` [Example 4, 7β-[D-2-(7,8-Diacetoxychromone-3-carboxamido)-2-phenylacetamido]-3-acetoxymethyl-3-cephem-4-carboxylic acid], for which the minimal inhibitory concentration (MIC) is 0.8 µg/mL in data set [1] (setting [8]); 0.8 µg/mL in data set [2] (setting [9]); ≤ 0.1 µg/mL in data set [3] (setting [10]); 3.13 µg/mL in data set [4] (setting [11]); 1.56 µg/mL in data set [5] (setting [12]); 1.56 µg/mL in data set [6] (setting [13]).

In the case of `CC(=O)OCC1=C(C(=O)O)N2C(=O)[C@@H](NC(=O)[C@H](N)c3ccccc3)[C@H]2SC1` [Cephaloglycin, cephaloglycin, reference compound], the minimal inhibitory concentration (MIC) in data set [1] (setting [8]) was 3.13 µg/mL; in data set [2] (setting [9]), > 100 µg/mL; in data set [3] (setting [10]) it was 1.56 µg/mL; in data set [4] (setting [11]), 25 µg/mL; in data set [5] (setting [12]), > 100 µg/mL; in data set [6] (setting [13]), 0.8 µg/mL.

As for `CC(=O)OCC1=C(C(=O)O)N2C(=O)[C@@H](NC(=O)[C@H](NC(=O)c3coc4cc(O)c(O)cc4c3=O)c3ccccc3)[C@H]2SC1` [Example 2, 7β-[D-2-(6,7-Dihydroxychromone-3-carboxamido)-2-phenylacetamido]-3-acetoxymethyl-3cephem-4-carboxylic acid], the minimal inhibitory concentration (MIC) in data set [1] (setting [8]) was 0.8 µg/mL; in data set [2] (setting [9]), 0.2 µg/mL; in data set [3] (setting [10]), ≤ 0.1 µg/mL; in data set [4] (setting [11]) it was 12.5 µg/mL; in data set [5] (setting [12]) it was 0.8 µg/mL; in data set [6] (setting [13]), 1.56 µg/mL. Also, the LD50 in data set [7] was > 5000 mg/kg.

For `CC(=O)OCC1=C(C(=O)O)N2C(=O)[C@@H](NC(=O)[C@H](NC(=O)c3coc4cc(OC(C)=O)c(OC(C)=O)cc4c3=O)c3ccccc3)[C@H]2SC1` [Example 1, 7β-[D-2-(6,7-Diacetoxychromone-3-carboxamido)-2-phenylacetamido]-3-acetoxymethyl-3-cephem-4-carboxylic acid], the minimal inhibitory concentration (MIC) was 1.56 µg/mL in data set [1] (setting [8]); 0.4 µg/mL in data set [2] (setting [9]); ≤ 0.1 µg/mL in data set [3] (setting [10]); 50 µg/mL in data set [4] (setting [11]); 0.8 µg/mL in data set [5] (setting [12]); 3.13 µg/mL in data set [6] (setting [13]).

On to `CC1=C(C(=O)O)N2C(=O)[C@@H](NC(=O)[C@H](N)c3ccccc3)[C@H]2SC1` [Cephalexin mono-hydrate, cephalexin monohydrate, reference compound], for which the MIC in data set [1] (Escherichia coli, 18 h) is 6.25 µg/mL; in data set [2] (Serratia marcescens, ES75, 18 h) it was > 100 µg/mL; in data set [3] (Klebsiella pneumoniae, EK6, 18 h), 3.13 µg/mL; in data set [4] (EP14, 18 h), > 100 µg/mL; in data set [5] (Pseudomonas aeruginosa, EP172, 18 h) it was > 100 µg/mL; in data set [6] (Staphylococcus aureus, 209P, 18 h), 1.56 µg/mL.
